Measurements as given in ChEMBL document CHEMBL6153174, “Design and Synthesis of Novel Deazapurine DNMT 1 Inhibitors with In Vivo Efficacy in DLBCL” (J Med Chem, 2025).
Values belong to the compound of their own block, whether it stands above or below them. The source made the active and inactive calls. The rule behind the calls is not given here.

Key:
[1] = target: T1, DNA (cytosine-5)-methyltransferase 1 (Homo sapiens, UniProt P26358); test: Inhibition of DNMT1 (unknown origin) at 5 uM preincubated for 15 mins followed by substrate and [3H-SAM] addition and measured after 60 mins by microbeta analysis relative to control; details: time 75.0 min
HT-29 = test: Antiproliferative activity against human HT-29 cells assessed as inhibition of cell viability measured after 72 hrs by MTT assay; format: functional, cell-based; details: HT-29, 72 h
HepG2 = test: Antiproliferative activity against human HepG2 cells assessed as inhibition of cell viability measured after 72 hrs by MTT assay; format: functional, cell-based; details: HepG2, 72 h
THP-1 = test: Antiproliferative activity against human THP-1 cells assessed as inhibition of cell viability measured after 72 hrs by MTT assay; format: functional, cell-based; details: THP-1, 72 h
A549 = test: Antiproliferative activity against human A549 cells assessed as inhibition of cell viability measured after 72 hrs by MTT assay; format: functional, cell-based; details: A549, 72 h
NCI-H1299 = test: Antiproliferative activity against human NCI-H1299 cells assessed as inhibition of cell viability measured after 72 hrs by MTT assay; format: functional, cell-based; details: NCI-H1299, 72 h
U-937 = test: Antiproliferative activity against human U-937 cells assessed as inhibition of cell viability measured after 72 hrs by MTT assay; format: functional, cell-based; details: U-937, 72 h
[2] = target: DNA (cytosine-5)-methyltransferase 3B (Homo sapiens, UniProt Q9UBC3); test: Inhibition of DNMT3B (unknown origin) preincubated for 15 mins followed by substrate and [3H-SAM] addition and measured after 60 mins by microbeta analysis
[3] = target: T1, DNA (cytosine-5)-methyltransferase 1; test: Inhibition of DNMT1 (unknown origin) at 1 uM preincubated for 15 mins followed by substrate and [3H-SAM] addition and measured after 60 mins by microbeta analysis relative to control; details: time 75.0 min
MV4-11 = test: Antiproliferative activity against human MV4-11 cells assessed as inhibition of cell viability measured after 72 hrs by MTT assay; format: functional, cell-based; details: MV4-11, 72 h
HCT-116 = test: Antiproliferative activity against human HCT-116 cells assessed as inhibition of cell viability measured after 72 hrs by MTT assay; format: functional, cell-based; details: HCT-116, 72 h
MDA-MB-231 = test: Antiproliferative activity against human MDA-MB-231 cells assessed as inhibition of cell viability measured after 72 hrs by MTT assay; format: functional, cell-based; details: MDA-MB-231, 72 h
MOLM-13 = test: Antiproliferative activity against human MOLM-13 cells assessed as inhibition of cell viability measured after 72 hrs by MTT assay; format: functional, cell-based; details: MOLM-13, 72 h
HeLa = test: Antiproliferative activity against human HeLa cells assessed as inhibition of cell viability measured after 72 hrs by MTT assay; format: functional, cell-based
RPMI-8226 = test: Antiproliferative activity against human RPMI-8226 cells assessed as inhibition of cell viability measured after 72 hrs by MTT assay; format: functional, cell-based; details: RPMI-8226, 72 h
[4] = Upregulation of BAX mRNA level in human DOHH-2 cells assessed as fold change at 300 nM measured after 6 days by PCR analysis; format: functional; details: time 6 day
U2932 = test: Antiproliferative activity against human U2932 cells assessed as inhibition of cell viability measured after 72 hrs by MTT assay; format: functional, cell-based; details: U2932, 72 h
DOHH-2 = test: Antiproliferative activity against human DOHH-2 cells assessed as inhibition of cell viability measured after 72 hrs by MTT assay; format: functional, cell-based; details: DOHH-2, 72 h
[5] = Antitumor activity against human TMD8 cells harbouring […] xenografted in mouse model assessed as tumor inhibition rate at 2.5 mg/kg, ip QD relative to control; format: functional; set-up: scale not given: the % may be the effect or the level left
[6] = Antiproliferative activity against human NK-YS cells assessed as inhibition of cell viability measured after 72 hrs by MTT assay; format: functional, cell-based
[7] = Antitumor activity against human TMD8 cells harbouring […] xenografted in mouse model assessed as body weight change at 2.5 mg/kg, ip QD relative to control; format: functional
Jurkat = test: Antiproliferative activity against human Jurkat cells assessed as inhibition of cell viability measured after 72 hrs by MTT assay; format: functional, cell-based
[8] = Antitumor activity against human TMD8 cells harbouring TP53 mutant xenografted in mouse model assessed as tumor inhibition rate at 2.5 mg/kg, ip QD relative to control; format: functional; set-up: scale not given: the % may be the effect or the level left
TMD8 [9] = test: Antiproliferative activity against human TMD8 cells assessed as inhibition of cell viability measured after 72 hrs by MTT assay; format: functional, cell-based; details: TMD8, 72 h
[10] = Antitumor activity against human TMD8 cells harbouring TP53 mutant xenografted in mouse model assessed as body weight change at 2.5 mg/kg, ip QD relative to control; format: functional
[11] = Upregulation of FAS mRNA level in human DOHH-2 cells assessed as fold change at 300 nM measured after 6 days by PCR analysis; format: functional; details: time 6 day
TMD8 [12] = test: Antitumor activity against human TMD8 cells xenografted in mouse model assessed as tumor inhibition rate at 2.5 mg/kg, ip QD relative to control; format: functional; set-up: scale not given: the % may be the effect or the level left
[13] = Antitumor activity against human TMD8 cells harbouring TP53 mutant xenografted in mouse model assessed as tumor inhibition rate at 12.5 mg/kg, po QD relative to control; format: functional; set-up: scale not given: the % may be the effect or the level left
[14] = Antitumor activity against human TMD8 cells harbouring […] xenografted in mouse model assessed as tumor inhibition rate at 12.5 mg/kg, po QD relative to control; format: functional; set-up: scale not given: the % may be the effect or the level left
[15] = Antitumor activity against human TMD8 cells harbouring […] xenografted in mouse model assessed as body weight change at 12.5 mg/kg, po QD relative to control; format: functional
[16] = Antitumor activity against human TMD8 cells harbouring TP53 mutant xenografted in mouse model assessed as body weight change at 12.5 mg/kg, po QD relative to control; format: functional
[17] = target: T1, DNA (cytosine-5)-methyltransferase 1; test: Inhibition of DNMT1 in human DOHH-2 cells assessed as inhibition of DNA methylation incubated for 48 hrs by Western blot analysis; format: cell-based; details: dose 10-1000 nM
[18] = target: T1, DNA (cytosine-5)-methyltransferase 1; test: Inhibition of DNMT1 in human DOHH-2 cells assessed as inhibition of 5-methylcytosine level at 10 to 1000 nM incubated for 48 hrs by Western blot analysis; format: cell-based; details: dose 10-1000 nM
[19] = target: T1, DNA (cytosine-5)-methyltransferase 1; test: Inhibition of DNMT1 in human DOHH-2 cells assessed as inhibition of H3K9 methylation level incubated for 48 hrs by Western blot analysis; format: cell-based; details: dose 10-1000 nM

T1 sequence (P26358 whole entry): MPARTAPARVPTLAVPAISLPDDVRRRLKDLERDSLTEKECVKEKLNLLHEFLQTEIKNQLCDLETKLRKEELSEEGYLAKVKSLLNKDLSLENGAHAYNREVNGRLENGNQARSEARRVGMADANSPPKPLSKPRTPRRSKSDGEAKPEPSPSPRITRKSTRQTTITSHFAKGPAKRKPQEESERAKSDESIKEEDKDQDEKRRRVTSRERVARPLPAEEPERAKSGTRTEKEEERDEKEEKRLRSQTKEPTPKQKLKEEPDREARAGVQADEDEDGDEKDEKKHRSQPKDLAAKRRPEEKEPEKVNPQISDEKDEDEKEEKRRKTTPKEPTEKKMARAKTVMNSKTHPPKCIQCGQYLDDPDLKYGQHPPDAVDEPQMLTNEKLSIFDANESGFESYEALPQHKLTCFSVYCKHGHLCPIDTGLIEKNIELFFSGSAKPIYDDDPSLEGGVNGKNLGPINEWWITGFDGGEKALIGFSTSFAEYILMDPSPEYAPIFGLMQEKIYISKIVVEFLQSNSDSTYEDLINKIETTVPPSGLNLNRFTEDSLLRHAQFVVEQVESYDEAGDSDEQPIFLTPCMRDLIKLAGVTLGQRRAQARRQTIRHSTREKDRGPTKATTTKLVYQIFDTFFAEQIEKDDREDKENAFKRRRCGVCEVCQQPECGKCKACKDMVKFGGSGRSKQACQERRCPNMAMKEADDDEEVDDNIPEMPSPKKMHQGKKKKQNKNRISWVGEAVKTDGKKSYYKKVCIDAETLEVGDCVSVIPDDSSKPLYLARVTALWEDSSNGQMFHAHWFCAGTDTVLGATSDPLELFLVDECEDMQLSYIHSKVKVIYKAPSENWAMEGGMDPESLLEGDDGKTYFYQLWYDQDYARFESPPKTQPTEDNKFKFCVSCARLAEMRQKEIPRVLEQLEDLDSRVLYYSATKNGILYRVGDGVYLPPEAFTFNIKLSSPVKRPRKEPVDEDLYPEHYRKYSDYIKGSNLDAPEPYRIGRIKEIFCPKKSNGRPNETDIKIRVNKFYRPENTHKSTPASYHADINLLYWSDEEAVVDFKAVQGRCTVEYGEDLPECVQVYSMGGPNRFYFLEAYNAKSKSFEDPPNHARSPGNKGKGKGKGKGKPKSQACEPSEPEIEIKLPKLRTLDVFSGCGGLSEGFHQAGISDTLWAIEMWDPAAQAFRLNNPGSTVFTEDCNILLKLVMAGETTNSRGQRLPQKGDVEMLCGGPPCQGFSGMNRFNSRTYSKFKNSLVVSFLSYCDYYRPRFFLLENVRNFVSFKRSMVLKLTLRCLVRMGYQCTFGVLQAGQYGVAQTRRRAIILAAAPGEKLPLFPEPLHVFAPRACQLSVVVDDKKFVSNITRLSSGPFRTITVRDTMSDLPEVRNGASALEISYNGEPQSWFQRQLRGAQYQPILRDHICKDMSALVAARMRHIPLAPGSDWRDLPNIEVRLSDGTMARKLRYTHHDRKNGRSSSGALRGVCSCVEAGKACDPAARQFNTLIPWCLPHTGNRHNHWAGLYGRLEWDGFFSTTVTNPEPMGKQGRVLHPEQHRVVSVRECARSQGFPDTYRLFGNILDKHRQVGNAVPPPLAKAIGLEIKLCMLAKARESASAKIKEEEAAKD

Compound: Nc1cc(F)ccc1NC(=O)c1ccc(CNC(=O)/C=C/c2cccnc2)cc1 [TUCIDINOSTAT]
Activity [13]: 61%
Activity [14]: 51.5%
Activity [15]: 2.5%
Activity [16]: -2.3%

Compound: COc1cc2c(NC3CCN(C)CC3)cc(-c3ccc(C)o3)nc2cc1OCCCN1CCCC1
IC50 (U2932): 2.13 µM
inhibition [17]: Dose-dependent-effect
inhibition [18]: Active
IC50 (DOHH-2): 0.23 µM
inhibition [19]: Dose-dependent-effect
IC50 (Jurkat): 0.41 µM
IC50 (TMD8 [9]): 0.19 µM

Further lines, with some results ahead:

inhibition [1]: 3.4%
IC50 (HT-29): 0.49 µM
IC50 (HepG2): 11.6 µM
IC50 (THP-1): 2.47 µM
IC50 (A549): 9.5 µM
IC50 (NCI-H1299): 12.2 µM
IC50 (U-937): 4.12 µM
IC50 [2]: 1.91 µM
inhibition [3]: 77%
IC50 (MV4-11): 0.98 µM
IC50 (HCT-116): 0.82 µM
IC50 (MDA-MB-231): 5.39 µM
IC50 (MOLM-13): 1.19 µM
IC50 (HeLa): 21.6 µM
IC50 (RPMI-8226): 1.34 µM
Compound: Cc1cc(Nc2ccc(NC(=O)c3ccc(Nc4ccnc5ccccc45)cc3)cc2)nc(N)n1

IC50 (Jurkat): 1.08 µM
Compound: Nc1ncn([C@@H]2O[C@H](CO)[C@@H](O)[C@H]2O)c(=O)n1 [AZACITIDINE]
fold change (FC) [4]: 1.86
IC50 (U2932): 1.83 µM
IC50 (DOHH-2): 0.34 µM
Activity [5]: 52.1%
IC50 [6]: 3.28 µM
Activity [7]: -5.9%
Activity [8]: 43.6%
IC50 (TMD8 [9]): 2.84 µM
Activity [10]: -5.9%
fold change (FC) [11]: 1.8
Activity (TMD8 [12]): 53.02%

IC50 (Jurkat): 19.8 µM
Compound: CCc1c(C#N)c(SC(C(N)=O)c2ccccc2)nc(N2CCC(N)CC2)c1C#N (stereo not drawn)
IC50 (U2932): 28.9 µM
IC50 (DOHH-2): 11.1 µM
IC50 [6]: 16.7 µM
IC50 (TMD8 [9]): 21.4 µM
